{"source": "patent US12599592B2", "about": "“Therapeutic small molecules for treatment of pulmonary hypertension” (UNIVERSITY OF PITTSBURGH—OF THE COMMONWEALTH SYSTEM OF …, priority 2020, dated 2026)", "key": {"PAECs": {"system": "PAECs", "test": "Global transcriptome microarray in PAECs", "assay_type": "cell-based, human", "conditions": "transcriptional array, hypoxia +/- BRD2889", "from_the_text": "The gene expression was normalized with Robust Multiarray Analysis (RMA). For BRD2889, the same approach was employed using Affymetrix Clariom S array on RNA isolated from PAECs treated with BRD2889 or vehicle and subjected to either hypoxia or normoxia. Differentially expressed genes were defined as any gene for which the FDR adjusted p-value was below 0.05 (n=3/grp). Reversed genes were further defined as those genes that were differentially expressed in both (hypoxia versus normoxia) and in (hypoxia+BRD2889 versus hypoxia)+vehicle as well as were regulated in opposite directions. Similarly, for I-BET that were differentially expressed in IL-1β+VC versus control and IL-1β+I-BET versus IL-1β+VC and were regulated in opposite directions. The data for both I-BET and BRD2889 have been submitted to the NCBI Gene Expression Omnibus with accession numbers GSE125508 and GSE160255, respectively."}, "[1]": {"system": "SU5416-hypoxic pulmonary arterial hypertension rats", "test": "SU5416-hypoxia pulmonary arterial hypertension rat model", "assay_type": "in vivo, Sprague-Dawley rats", "method": "Briefly, 10 week old male Sprague-Dawley rats were injected i.p. with 20 mg/kg of SU5416 (Sigma), placed in normobaric hypoxia (10% O2) for 3 weeks and then transferred to normoxia for 2 weeks. During hypoxic exposure, chambers were opened twice a week for cleaning and replenishment of food and water. […] For BRD2889 vs. vehicle control dosing, i.p. injections every 5 days (5 mg/kg) were administered during the final two weeks of normoxia. Oxygen concentrations were continuously monitored with blood gas analyzers.\nFollowing euthanasia, right ventricle/[left ventricle+septum]\nMeasurement of GST activity: The GST activity from lung tissue and PAECs was assayed using GST assay kit (Cayman, MI, USA) per the manufacturer's instructions.\nRodent echocardiography: Echocardiography was performed using a 15-45 MHz transthoracic transducer and a Visual Sonics Vevo 3100 system (Fujifilm). Inhaled isoflurane anesthesia was used at 2% in 100% O2 during positioning and hair removal and then decreased to isoflurane 0.8% during imaging."}, "[2]": {"target": "T1, glutathione S-transferase (GST) activity / GSTP1 (Homo sapiens, UniProt P09211)", "T1 construct": "endogenous in cells; host or cells: primary human PAECs (hypoxia or IL-6/sIL-6R+hypoxia)", "T1 sequence (P09211 2-210 limits assumed)": "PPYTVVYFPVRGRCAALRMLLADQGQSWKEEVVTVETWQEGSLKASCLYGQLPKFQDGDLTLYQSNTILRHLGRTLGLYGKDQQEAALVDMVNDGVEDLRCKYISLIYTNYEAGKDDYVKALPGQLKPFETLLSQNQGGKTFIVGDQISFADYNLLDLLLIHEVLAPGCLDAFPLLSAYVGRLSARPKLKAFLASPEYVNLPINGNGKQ", "test": "GST activity in PAECs", "assay_type": "cell-based", "method": "(§1) For hypoxia exposure, cells were plated in 6-well cell culture plates at 1×10^5 cells/well, grown for 24 hr and placed into a normobaric hypoxia chamber (1% O2) for 24 h under specific treatment conditions. Namely, for I-BET and siLGALS8 exposures, cells were either pre-treated with I-BET/vehicle control (VC) or transfected with siLgals8/Scr for 24 h. Then, they were cultured in basal media at 1% 02. After 24 h, caspase activity and mitochondrial superoxide levels were quantified. To detect activation status of pSTAT1/STAT1 by immunoblot, cells were exposed to 8 h of hypoxia.\n(§2) In IL-6/sIL-6R+hypoxia experiments, a human recombinant IL-6/IL-6R alpha protein chimera (25 ng/ml, Millipore) was administered at 70-80% confluency for 48 h in complete media along with vehicle control (DMSO, Sigma-41639). BRD2889 (1 uM) vs. vehicle control were added, as indicated, and placed into a hypoxia chamber for 24 h. The hypoxia chamber (modular incubator chamber) was obtained from Billups-Rothenberg Inc. (Del Mar, Calif) and placed in regulated CO2 incubator at 37° C."}, "ISCU": {"system": "ISCU", "test": "Immunoblot of ISCU and GSTP1 in PAECs", "assay_type": "cell-based, human", "method": "as §1, §2\nProtein stability assay: The proteasome inhibitor MG132 (M7449, Sigma) was stored at −20° C. at a concentration of 10 mM diluted in dimethyl sulfoxide (DMSO). PAECs were exposed to MG132 ([…]) vs. DMSO vehicle control for 2 hr under hypoxia, prior to harvesting of cellular lysate for immunoblotting.\nImmunoblot and densitometry: Cells were lysed in RIPA buffer (Sigma) along with 1× protease inhibitor cocktail (Sigma). Protein lysate was resolved by gradient 4%-15% SDS-PAGE gels and transferred onto a 0.2 μm PVDF membrane (Bio-Rad). Membranes were blocked in 5% non-fat milk in 1×PBST buffer for one hour at room temperature. Later, they were incubated in the presence of the primary antibody overnight at 4° C. and then appropriate HRP-conjugated secondary antibodies (Life Technologies). The following antibodies were used: human LGALS8 (AF1305, RnD Systems), mouse/rat Lgals8 (ab69631, Abcam), pSTAT1 (ab29045, Abcam) and STAT1 (ab47425, Abcam), GSTP1 (ab153949, Abcam), ISCU (14812-1-AP, Prointech), Glutathione (ab19534, Abcam), HIF2A (NB100-122, Novous), α-Tubulin (CP06, Millipore sigma), and ACTB (sc-47778, Santa Cruz). The immunoreactive bands were visualized with the Chemidoc XRS+system (Bio-Rad) using SuperSignal West Femto chemiluminescent substrates (Thermo Fisher Scientific). The images were later quantified using AlphaEaseFC software (Alpha Innotech)."}, "mitochondrial Complex I": {"system": "mitochondrial Complex I", "test": "Mitochondrial Complex I activity in PAECs", "assay_type": "cell-based, human"}, "PASMCs [3]": {"system": "PASMCs", "test": "BrdU proliferation in PASMCs", "assay_type": "cell-based, human", "conditions": "IL-6/sIL-6R + hypoxia", "method": "as §2\nBrdU growth assay: Cell proliferation was assayed relative to day 0 using a BrdU Cell Proliferation Assay Kit (#6813, Cell Signaling) according to the manufacturer's protocol after incubation for 2 h with BrdU."}, "PASMCs [4]": {"system": "PASMCs", "test": "Apoptosis (caspase 3/7) in PASMCs", "assay_type": "cell-based, human", "conditions": "IL-6/sIL-6R + hypoxia", "method": "as §2\nCellular apoptosis: Caspase-3/7 activity was quantified using the Caspase-Glo 3/7 Assay (Promega), according to manufacturer's instructions. Caspase-3/7 activity was normalized to total protein content determined by BCA method (Thermo Fisher Scientific)."}, "[5]": {"target": "glutathione S-transferase pi 1 (GSTP1) (Homo sapiens, UniProt P09211)", "sequence (P09211 whole entry, species assumed)": "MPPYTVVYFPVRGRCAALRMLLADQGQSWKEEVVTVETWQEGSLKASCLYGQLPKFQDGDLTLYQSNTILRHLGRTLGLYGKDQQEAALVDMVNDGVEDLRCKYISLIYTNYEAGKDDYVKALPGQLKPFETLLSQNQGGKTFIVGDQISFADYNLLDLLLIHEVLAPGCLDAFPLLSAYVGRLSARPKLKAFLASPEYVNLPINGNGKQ", "conditions": "literature report; cited from earlier work"}, "[6]": {"conditions": "BRD2889 5 mg/kg i.p. every 5 days"}, "[7]": {"conditions": "PAECs, IL-6/sIL-6R + hypoxia, BRD2889 1 uM"}}}
{"smiles": "COc1ccc(C#CC2CCCN(C(=O)/C=C/c3cc(OC)c(OC)c(OC)c3)C2=O)cc1", "note": "(stereo not drawn) [BRD2889]", "values": [{"measurement": "number of genes altered by hypoxia but reversed by drug", "setting": "PAECs", "result": 3830, "unit": "genes"}, {"measurement": "Fulton index (RV/LV+S)", "setting": "[1]; [6]", "result": "reduced"}, {"measurement": "ISCU in CD31+ endothelium", "setting": "[1]; [6]", "result": "increased"}, {"measurement": "arteriolar muscularization", "setting": "[1]; [6]", "result": "reduced"}, {"measurement": "cleaved caspase-3 (CC-3) in CD31+ endothelium", "setting": "[1]; [6]", "result": "decreased"}, {"measurement": "right ventricular systolic pressure (RVSP)", "setting": "[1]; [6]", "result": "reduced"}, {"measurement": "lung GST activity", "setting": "[1]; BRD2889 5 mg/kg i.p. every 5 days, final 2 weeks in normoxia", "result": "decreased"}, {"measurement": "left ventricular function (LVPW thickness, LVEF, LVFS)", "setting": "[1]; BRD2889 vs vehicle", "result": "did not exhibit altered left ventricular function"}, {"measurement": "ascites", "setting": "[1]; three SU5416-hypoxic rats treated with drug", "result": "accumulation of mild ascites"}, {"measurement": "GSTP1 (GST) activity", "setting": "[2]; [7]", "result": "reversed the increase"}, {"measurement": "GST enzyme activity", "setting": "[2]; hypoxic PAECs", "result": "reduced the hypoxic increase"}, {"measurement": "GSTP1 expression", "setting": "ISCU; PAECs, IL-6/R + hypoxia", "result": "without altering"}, {"measurement": "ISCU expression (immunoblot)", "setting": "ISCU; [7]", "result": "reversed the decrease"}, {"measurement": "GSTP1 expression", "setting": "ISCU; hypoxic PAECs", "result": "did not affect"}, {"measurement": "ISCU protein levels", "setting": "ISCU; hypoxic PAECs", "result": "reversed hypoxia-dependent reduction"}, {"measurement": "mitochondrial Complex I activity", "setting": "mitochondrial Complex I; PAECs, IL-6/sIL-6R + hypoxia", "result": "partially rescued"}, {"measurement": "iron-sulfur-dependent mitochondrial Complex I activity", "setting": "mitochondrial Complex I; hypoxic PAECs", "result": "reversed the decrease"}, {"measurement": "hypoxia-induced decrease in mitochondrial Complex I activity", "setting": "mitochondrial Complex I; hypoxic PAECs with siRNA knockdown of ISCU", "result": "did not reverse"}, {"measurement": "proliferation", "setting": "PASMCs [3]", "result": "did not affect"}, {"measurement": "apoptosis", "setting": "PASMCs [4]", "result": "only subtly changed"}, {"measurement": "inhibition of GSTP1", "setting": "[5]", "result": "known to inhibit"}]}
